The source of these data is PubChem BioAssay (NCI).

Among the test systems are LOX IMVI melanoma; SK-OV-3 ovarian; SN12C renal; SF-295 CNS; TK-10 renal; NCI/ADR-RES ovarian; A498 renal; MALME-3M melanoma; OVCAR-3 ovarian; SK-MEL-5 melanoma; HL-60(TB) leukemia; UACC-257 melanoma; T-47D breast.
Assay in all cases: NCI anticancer screen, dose series, 48 h

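Dose response: 5 concentrations. Exposure: 48 h. Format: 96-well plates. Endpoint: linear interpolation; highest concentration if not reached. At the TGI there is no net growth.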 Where a SMILES comes first, the peptide text is derived from it. The star is where a group is joined. Fmoc = O=C(OCC1c2ccccc2-c2ccccc21)*; OtBu = CC(C)(C)O*

Regarding `CC(C)C(NC(=O)OCC1c2ccccc2-c2ccccc21)C(=O)NC(CCC(=O)OC(C)(C)C)C(=O)OC(C)(C)C` (stereo not given) (Fmoc-Val-Glu(OtBu)-OtBu; configuration not given here), the TGI with LOX IMVI melanoma is above 100 µM; in the test on SK-OV-3 ovarian it was above 100 µM; in the test on SN12C renal it was above 31.6 µM; in the test on SF-295 CNS it was above 89.1 µM; in the test on TK-10 renal, above 100 µM; in the test on NCI/ADR-RES ovarian, above 100 µM. Moreover, the TGI in the test with A498 renal, in the test with MALME-3M melanoma, in the test with OVCAR-3 ovarian, in the test with SK-MEL-5 melanoma, with HL-60(TB) leukemia and in the test on UACC-257 melanoma was above 100 µM each time. The TGI in the test on T-47D breast was above 72.7 µM.
Turning to `Nc1nc(Cl)cc(NCC2(O)CCC2)n1`, the TGI with LOX IMVI melanoma, with SK-OV-3 ovarian, in the test with SN12C renal, with SF-295 CNS, in the test on TK-10 renal and in the test on NCI/ADR-RES ovarian was above 100 µM in each case. Further, the TGI in the test on A498 renal, with MALME-3M melanoma, in the test with OVCAR-3 ovarian, with SK-MEL-5 melanoma, in the test on HL-60(TB) leukemia and with UACC-257 melanoma was above 100 µM in each case. Besides, in the test on T-47D breast, the TGI is above 100 µM.
Take `COc1ccc(S(=O)(=O)N2C(=O)CCC2C(=O)NC(N)=O)cc1` (stereo not given): the TGI with LOX IMVI melanoma, with SK-OV-3 ovarian, in the test on SN12C renal, in the test with SF-295 CNS, in the test on TK-10 renal and with NCI/ADR-RES ovarian was above 100 µM in each case. For the same molecule, the TGI with A498 renal, in the test on MALME-3M melanoma, in the test on OVCAR-3 ovarian, in the test with SK-MEL-5 melanoma, with HL-60(TB) leukemia and with UACC-257 melanoma was above 100 µM in each case. Further, the TGI in the test with T-47D breast is above 100 µM.
Turning to `O=C1NC2c3c(I)sc(I)c3C(=O)C2O1` (stereo not given), the TGI was found to be 5.15 µM in the test on LOX IMVI melanoma; 31.5 µM with SK-OV-3 ovarian; 51.5 µM with SN12C renal; 30.5 µM in the test on SF-295 CNS; 27.3 µM in the test with TK-10 renal; 34.1 µM in the test with NCI/ADR-RES ovarian. Also, the TGI was 22.4 µM in the test on A498 renal; 6.88 µM in the test on MALME-3M melanoma; 11.1 µM with OVCAR-3 ovarian; 6.16 µM in the test with SK-MEL-5 melanoma; above 31.6 µM in the test on HL-60(TB) leukemia; 12.2 µM in the test with UACC-257 melanoma. Besides, in the test on T-47D breast, the TGI is above 45.7 µM.
Consider `CC(=O)OCCn1cnc2c(NCC=C(C)C)ncnc21`, for which the TGI in the test on LOX IMVI melanoma, with SK-OV-3 ovarian, in the test with SN12C renal, in the test with SF-295 CNS, in the test on TK-10 renal and in the test on NCI/ADR-RES ovarian was above 100 µM in each case. The TGI with A498 renal, in the test with MALME-3M melanoma, in the test with OVCAR-3 ovarian, with SK-MEL-5 melanoma, with HL-60(TB) leukemia and in the test on UACC-257 melanoma was above 100 µM in each case. The same molecule returned a TGI with T-47D breast above 100 µM.
For the molecule `C=C(Cl)C(Cl)(CBr)CCC(Br)C(C)(C)Br` (stereo not given), the TGI in the test on LOX IMVI melanoma is 33.3 µM; in the test on SK-OV-3 ovarian, 26.5 µM; with SN12C renal, 19.7 µM; in the test with SF-295 CNS, 3.78 µM; with TK-10 renal, 3.12 µM; with NCI/ADR-RES ovarian it was above 55.4 µM. Besides, the TGI in the test with A498 renal was determined as 23.3 µM; with MALME-3M melanoma, 29.6 µM; with OVCAR-3 ovarian, 6.65 µM; with SK-MEL-5 melanoma it was 30.2 µM; with HL-60(TB) leukemia, 6.02 µM; in the test on UACC-257 melanoma, 4.4 µM. The TGI in the test on T-47D breast was 7.42 µM.
With `O=C(O)c1ccccc1C(=O)NCC1S(=O)(=O)OCCOS1(=O)=O`, the TGI in the test with LOX IMVI melanoma, in the test on SK-OV-3 ovarian, with SN12C renal, with SF-295 CNS, in the test with TK-10 renal and with NCI/ADR-RES ovarian was above 100 µM throughout. Besides, the TGI in the test on A498 renal, with MALME-3M melanoma, with OVCAR-3 ovarian, with SK-MEL-5 melanoma, with HL-60(TB) leukemia and in the test with UACC-257 melanoma was above 100 µM throughout. Moreover, the TGI in the test on T-47D breast is above 100 µM.
For `Cc1cc(S(=O)(=O)Nc2n[nH]c(-c3ccc(Cl)cc3)n2)c(SSc2cc(Cl)c(C)cc2S(=O)(=O)Nc2n[nH]c(-c3ccc(Cl)cc3)n2)cc1Cl`, the TGI with LOX IMVI melanoma was 64.3 µM; with SK-OV-3 ovarian, above 100 µM; in the test on SN12C renal it was above 100 µM; in the test on SF-295 CNS, above 100 µM; in the test on TK-10 renal, above 100 µM; with NCI/ADR-RES ovarian, above 100 µM. Moreover, the TGI with A498 renal is 59.1 µM; with MALME-3M melanoma it was above 100 µM; in the test with OVCAR-3 ovarian it was 85.1 µM; with SK-MEL-5 melanoma, 86.8 µM; in the test with HL-60(TB) leukemia, 48.5 µM; with UACC-257 melanoma, above 100 µM. The same molecule showed a TGI in the test on T-47D breast of 42.2 µM.
With `OC1(C(Sc2cc(C(F)(F)F)cc(C(F)(F)F)c2)Sc2cc(C(F)(F)F)cc(C(F)(F)F)c2)C=CCCC1` (stereo not given), the TGI with LOX IMVI melanoma came out at 5.9 µM; in the test on SK-OV-3 ovarian, 11.3 µM; in the test on SN12C renal, 6.77 µM; in the test with SF-295 CNS it was 6.39 µM; with TK-10 renal it was 3.8 µM; with NCI/ADR-RES ovarian, 10.1 µM. Moreover, the TGI in the test on A498 renal was 4.58 µM; in the test with MALME-3M melanoma, 8.81 µM; in the test with OVCAR-3 ovarian it was 6.14 µM; with SK-MEL-5 melanoma, 16.6 µM; in the test on HL-60(TB) leukemia it was 3.97 µM; with UACC-257 melanoma, 3.56 µM. For the same molecule, the TGI with T-47D breast came to 4.26 µM.
In the case of `COc1ccc2c(c1)Cc1c(NCCN(C)C)ccc(C(=O)NCCCN(C)CCCNC(=O)c3ccc(NCCN(C)C)c4c3Nc3ccc(OC)cc3C4)c1N2`, the TGI with LOX IMVI melanoma was 0.766 µM; in the test with SK-OV-3 ovarian it was 0.502 µM; in the test with SN12C renal, 0.624 µM; with SF-295 CNS, 3.52 µM; with TK-10 renal it was 4.88 µM; in the test on NCI/ADR-RES ovarian, above 100 µM. Besides, the TGI with A498 renal came out at 0.833 µM; in the test on MALME-3M melanoma it was 0.209 µM; in the test on OVCAR-3 ovarian, 1.21 µM; in the test on SK-MEL-5 melanoma, 1.72 µM; in the test on HL-60(TB) leukemia it was 1.17 µM; in the test with UACC-257 melanoma, 1.1 µM. In the test with T-47D breast, this molecule gave a TGI of 12.5 µM.
